Source: US6677435B2, “Prodrug activation using catalytic antibodies” (The Scripps Research Institute, priority 1999, dated 2004)

Tests used:
[1] = system: antibody 38C2; assay: Kinetic analysis of antibody 38C2-catalyzed prodrug activation (RP-HPLC); format: biochemical, mouse
Experimental: All antibody reactions were carried out in PBS (pH 7.4) at 37° C. in microfuge tubes. […] Kinetic data were derived from Lineweaver-Burk plots. […] Topoisomerase I and II inhibitor doxorubicin was chosen as a model compound for this prodrug activation concept because its structure activity relationship is well characterized and it has been used previously in ADEPT systems (Niculescu-Duvaz, I. & Springer, C. J. (1997) Adv. Drug Delivery Rev. 26, 151-172). Doxorubicin is a drug approved for cancer therapy that suffers from misdirected toxicity. […] The tertiary aldol was chosen as the first reaction since no known natural enzyme catalyzes this particular type of retro-aldol reaction. […] Typically 38C2 is highly enantioselective, however, under the conditions studied, the reaction proceeded to completion indicative of loss of enantioselectivity and complete activation of the prodrug. According to a pharmacokinetic analysis of ADEPT systems, low kcat values combined with high Km values are expected to increase the tumor to blood ratio of the free drug, leading to a reduction in peripheral toxicity (Yuan, J., Baxter, L. T. & Jain, R. K. (1991). Cancer Res. 51, 3119-3130). […] To this end, both the masking linker and catalytic antibody are being optimized.

[2] = system: HT29 human colon carcinoma cells; assay: Cell growth inhibition assay (lactate dehydrogenase colour reaction), HT29; format: cell-based
From the text: (§1) Human colon carcinoma cell lines HT29 and LIM1215 were kindly provided by Dr. Lloyd J. Old from The Ludwig Institute for Cancer Research in New York. Human prostate cancer cell line LNCap was purchased from American Type Culture Collection (Manassas, Va.). All cell lines were maintained in RPMI 1640 medium (Hyclone, Logan, Utah) supplemented with 10% fetal bovine serum (Life Technologies, Gaithersburg, Md.) and antibiotic-antimycotic reagents (Life Technologies) containing penicillin, streptomycin, and amphotericin B. The cell lines were cultivated in culture flasks at 37° C. in a humidifying incubator in an atmosphere of 5% CO2.
(§2) Stock solutions of 5 mM doxorubicin and prodoxorubicin in DMF, respectively, were stored at 4° C. For cell growth inhibition assays, 250-μM dilutions of doxorubicin and prodoxorubicin in PBS (pH 7.4) were freshly prepared from the 5 mM stock solutions and further diluted in cell culture medium to yield 10 nM to 25 μM solutions. Methyl vinyl ketone was purchased from Aldrich (Milwaukee, Wis.). Stock solutions of 1 mM camptothecin and procamptothecin in DMF, respectively, were stored at 4° C. […] Prior to the quantitative cell growth inhibition assay, the cell density was qualitatively analyzed by microscopy. This visual evaluation always matched the result of the quantitative analysis. […] For quantification, 50 μl aliquots were transferred to another 96-well plate and the color was read at 490 nm in an ELISA plate reader. The absorbance data were converted to percent cell density with the untreated controls being 100% and the background of the color reaction being 0%.
(§3) The antiproliferative effects of drug and prodrug were monitored by quantifying the cell growth in the presence of a range of concentrations of doxorubicin and prodoxorubicin, respectively. Three different human cancer cell lines were evaluated, human colon carcinoma cell lines HT29 and LIM1215 and human prostate cancer cell line LNCap. […]

[3] = system: LIM1215 human colon carcinoma cells; assay: Cell growth inhibition assay (lactate dehydrogenase colour reaction), LIM1215; format: cell-based; settings: for IC50: Homo sapiens, LIM1215
Experimental: Stock solutions of 5 mM doxorubicin and prodoxorubicin in DMF, respectively, were stored at 4° C. For cell growth inhibition assays, 250-μM dilutions of doxorubicin and prodoxorubicin in PBS (pH 7.4) were freshly prepared from the 5 mM stock solutions and further diluted in cell culture medium to yield 10 nM to 25 μM solutions. […] Stock solutions of 1 mM camptothecin and procamptothecin in DMF, respectively, were stored at 4° C. For cell growth inhibition assays, 100-μM dilutions of camptothecin and procamptothecin in PBS (pH 7.4) were freshly prepared from the 1 mM stock solutions and further diluted in cell culture medium to yield 10 nM to 1 μM solutions. Cells grown in culture flasks were trypsinized, washed with PBS, resuspended in cell culture medium, and reduced to a single cell suspension by passing through a 18 G needle. After counting, the cells were plated at a density of 5×10^3 (HT29) or 1×10^4 (LIM1215, LNCap) cells/well in 96-well tissue culture plates and maintained in culture as described above. Drugs were diluted to a final concentration range of 10 nM to 25 μM in 100 μl 10% fetal bovine serum in RPMI 1640 and added to the cells 24 hours after plating. […] After drug addition, the cells were maintained at 37° C. in 5% CO2for 3 to 5 days (72 to 120 hours). Prior to the quantitative cell growth inhibition assay, the cell density was qualitatively analyzed by microscopy. […] The cells were then washed with 150 μl PBS (pH 7.5) and incubated with 100 μl of 9% (v/v) Triton-X 100 (Sigma, St. Louis, Mo.) for 45 minutes at 37° C. The supernatant was then transferred to a 96-well V-shaped plate and centrifuged to remove cell debris. […] For quantification, 50 μl aliquots were transferred to another 96-well plate and the color was read at 490 nm in an ELISA plate reader. The absorbance data were converted to percent cell density with the untreated controls being 100% and the background of the color reaction being 0%.

[4] = system: human prostate cancer cell line LNCap; assay: Cell growth inhibition assay (lactate dehydrogenase colour reaction), LNCap; format: cell-based
From the text: as §1, §2, §3

[5] = HT-29, 72 h after drug addition, 50% decrease in cell density vs untreated control
[6] = 72 h after drug addition, 50% decrease in cell density vs untreated control

SMILES | IC50 [2, 5] [µM] | IC50 [3, 6] [µM] | IC50 [4, 6] [µM] | other results
CC(=O)CC(C)=O [2,4-pentanedione] | – | – | – | inhibition of 38C2 catalysis of prodoxorubicin cleavage [1]: completely inhibited
CC[C@@]1(O)C(=O)OCc2c1cc1n(c2=O)Cc2cc3ccccc3nc2-1 [camptothecin] | 0.1 to 0.25 | 0.1 to 0.25 | 0.01 to 0.025 | –
COc1cccc2c1C(=O)c1c(O)c3c(c(O)c1C2=O)C[C@@](O)(C(=O)CO)C[C@@H]3O[C@H]1C[C@H](N)[C@H](O)[C@H](C)O1 [doxorubicin] | 3 | 0.4 | 0.4 | IC50 ([2]; HT-29, 120 h after drug addition): 2.5 µM; IC50 ([3]; 120 h after drug addition): 0.4 µM; IC50 ([4]; 120 h after drug addition): 0.2 µM
C=CC(C)=O [methyl vinyl ketone] | – | – | – | cell growth inhibition when applied alone ([3]; LIM1215 cells, 120 h, without combination partner): no inhibition of cell growth
